Entries after “also recorded” stand apart in the source; their conditions may differ. Read-outs that look alike come from different tables or passages of the source.
Key:
Arabidopsis aba2-1 = assay: Leaf transpiration experiment (leaf temperature by thermal imager), Arabidopsis; format: in vivo, Arabidopsis thaliana; settings: for duration of the leaf temperature increase: FIG. 4a, 4c; for inhibitory effect on leaf transpiration compared with ABA: Arabidopsis aba2-1, spray
Procedure: ABA synthesis mutant aba2-1 was used in Arabidopsis leaf transpiration experiment. […] Therefore, this mutant is used to exclude the effect of endogenous ABA on the transpiration experiment. The plants were sprayed with a solution containing 0.05% tween-20 and corresponding concentrations of (+)-ABA/0224/0304/0706/0715/0428 or 0.05% Tween-20 and 0.05% DMSO (control) after three weeks of continuous watering with an amount of 1.2 ml/pot. Leaf transpiration experiments of soybeans were conducted at 26° C. with long-day lighting and soybeans were sprayed with a solution containing 0.1% tween-20 and 20 μM (+)-ABA/0224/0304 compound or 0.1% Tween-20 and 0.05% DMSO (control) 14 days after sowing with an amount of 4 ml/pot; the leaf transpiration experiments of cottons were sprayed with a solution containing 0.1% tween-20 and 20 μM (+)-ABA/0224 compound or 0.1% Tween-20 and 0.05% DMSO, respectively, 25 days after sowing with an amount of 4 ml/pot; the leaf transpiration experiments of wheats were sprayed with a solution containing 0.1% tween-20 and 100 μM (+)-ABA/0224 compound or 0.1% Tween-20 and 0.05% DMSO (control) 18 days after sowing with an amount of 6 ml/pot. Images were taken daily using the FLIR A655sc thermal imager at the same time before and after spraying.
In this experiment, the temperature change of leaf surface was observed and recorded by an infrared camera, thus reflecting the strength of plant transpiration. The stronger the transpiration, the lower the leaf temperature.

[1] = molecular target: T1, PYL2 receptor-HAB1 protein phosphatase complex (Arabidopsis thaliana, UniProt O80992); assay: AlphaScreen assay: promotion of PYL2 receptor binding to PP2C protein phosphatase HAB1; settings: 6×His-SUMO-tagged PYL2 (aa 14-188), Biotin-tagged HAB1 (aa 172-511), 100 nM each, pH 7.4, 1.5 h room temperature
T1 construct: made in house; host or cells: E. coli BL21 (DE3)
T1 sequence (O80992 14-188): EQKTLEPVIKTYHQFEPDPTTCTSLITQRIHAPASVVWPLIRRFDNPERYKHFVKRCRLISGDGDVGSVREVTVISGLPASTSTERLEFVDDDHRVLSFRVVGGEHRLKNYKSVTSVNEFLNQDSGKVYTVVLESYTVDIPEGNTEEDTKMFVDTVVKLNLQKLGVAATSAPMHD
T1 sequence (Q9CAJ0 172-511 partner limits assumed): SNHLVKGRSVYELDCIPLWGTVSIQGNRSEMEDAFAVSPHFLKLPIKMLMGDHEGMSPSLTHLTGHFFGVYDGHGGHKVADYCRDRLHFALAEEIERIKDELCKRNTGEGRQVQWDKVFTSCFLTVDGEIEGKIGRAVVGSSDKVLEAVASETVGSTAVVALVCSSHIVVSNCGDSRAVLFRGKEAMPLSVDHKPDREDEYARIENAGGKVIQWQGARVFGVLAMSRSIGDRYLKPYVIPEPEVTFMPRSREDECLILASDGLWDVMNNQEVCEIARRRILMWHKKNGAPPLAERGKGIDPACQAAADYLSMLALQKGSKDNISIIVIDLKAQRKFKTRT
Text: The construction method of recombinant plasmids for the Arabidopsis thaliana genes PYL1 (amino acid sequence 36-211), PYL2 (amino acid sequence 14-188) with dual tags of 6×His and SUMO sequence and the Arabidopsis thaliana gene HAB1 (amino acid sequence 172-511) with the Biotin tag sequence is described in detail in “A gate-latch-lock mechanism for hormone signaling by abscisic acid receptors” (Nature, Vol 462, 2009). The construction method of recombinant plasmids for PYR1 and PYL7 (whole gene coding sequence) and Soybean GmPYL6 and rice OsPYL2 with dual tags of 6×His and SUMO sequence is the same as that for Arabidopsis PYL2.
The above recombinant plasmid is transformed into competent cell of E. coli BL21 (DE3) (purchased from NEB company), and inoculated into 200 ml of LB liquid medium containing Amp resistance (purchased from OXOID company) and cultured overnight at 37° C. at 200 rpm; and inoculated into 2 L of LB liquid medium containing Amp resistance at a ratio of 1:50-1:100 for an extended culture, and cultured at 37° C., 200 rpm for 3-4 hours, and at a low temperature of 16° C. until OD600 is about 0.8-1.0. Recombinant plasmids for PYR1/PYL1/PYL2/PYL7/GmPYL6/OsPYL2 with dual tags of 6×His and SUMO sequence were induced overnight with 100 μM of IPTG while HAB1 recombinant plasmid with the Biotin tag sequence was induced simultaneously with 100 μM of IPTG and 40 μM of biotin.
After 16 hours of induction, the bacterial solution was centrifuged at 4000 rpm for 20 minutes at 4° C. in a low-speed high-capacity centrifuge, and the bacteria cells were collected. Bacteria cells were resuspended in 50 ml of extraction buffer (containing 20 mM Tris, pH 8.0, 200 mM NaCl and 10% (v/v) glycerol) for per 2 L of bacterial solution and then subjected to pressure-breaking at […] and 4° C. for 3-5 times. The broken cells were subjected to ultracentrifugation, centrifuged at 16000 rpm for 30 minutes, and this process was repeated twice. The supernatant was collected and subjected to an affinity chromatography column.
For PYR/PYL proteins with dual tags of 6×His and SUMO sequences, 50 ml of affinity chromatography Ni column (50 ml Ni-NTA column, available from GE) was used. Firstly, the column was equilibrated with 600 ml of 10% buffer B (containing 20 mM Tris, PH 8.0, 200 mM NaCl, 500 mM imidazole and 10% glycerol), and then eluted with 200 ml of 50% buffer B and finally eluted with 100 ml of 100% buffer B. Proteins for crystal analysis were mixed with ulp1 enzyme at a molar ratio of 1000:1 for enzymatic dialysis overnight. The digested proteins were subjected to affinity chromatography on a Ni column once more. The collected solution was subjected to a HiLoad 26/60 Superdex200 gel filtration column (commercially available from GE) and eluted with an elution solution (containing 25 mM Tris, pH 8.0, 200 mM ammonium acetate, 1 mM dithiotreitol and 1 mM EDTA) to further separate and purify the protein.
For a HAB1 protein with a Biotin tag sequence, it was subjected to a 50 ml MBP affinity column (available from GE). The column was firstly equilibrated with 600 ml of 10% buffer C (containing 20 mM Tris, pH 8.0, 200 mM NaCl, 10 mM Maltose and 10% Glycerol), and eluted with 200 ml of 50% buffer C and finally eluted with 100 ml of 100% buffer C. The collection solution was subjected to a HiLoad 26/60 Superdex200 gel filtration column and eluted with an elution solution (containing 20 mM Tris, pH 8.0, 200 mM NaCl and 10% Glycerol) to further separate and purify the protein. […]

[2] = 5 μM spray, after spraying, FIG. 4a-4c
[3] = 5 μM spray, four days after spraying

EC50 ([1]; FIG. 2c, read-out: EC50) [µM] | EC50 ([1]; FIG. 2e, read-out: EC50) [µM] | Compound | leaf temperature versus DMSO control (leaf transpiration) (Arabidopsis aba2-1; [2]) | leaf temperature versus DMSO control (leaf transpiration) (Arabidopsis aba2-1; [3]) | duration of the leaf temperature increase (Arabidopsis aba2-1; 5 μM spray) | inhibitory effect on leaf transpiration compared with ABA (Arabidopsis aba2-1) | other results
– | – | CC1=CC(=O)CC(C)(C)[C@@]1(O)/C=C/C(C)=C\C(=O)O [ABA, Abscisic Acid, reference compound] | significantly increased compared to that with control (DMSO) treatment; also recorded: the leaf temperature was higher than that in the DMSO control group | had dropped to the level before spraying | – | – | EC50 ([1]; EC50, FIG. 2c): 0.866 µM; EC50 ([1]; EC50, FIG. 2e): 4.96 µM; EC50 ([1]; EC50, FIG. 2f): 0.148 µM; EC50 ([1]; EC50, FIG. 2g): 3.57 µM
0.0296 | 0.0921 | CCCN1C(=O)OC(C)c2cc(NS(=O)(=O)Cc3c(F)c(F)c(C)c(F)c3F)ccc21 (stereo not shown) [Compound 0224] | significantly increased compared to that with control (DMSO) treatment; also recorded: the leaf temperature was higher than that in the DMSO control group | still significantly higher than that in the DMSO control | longer | better than that of ABA | leaf temperature versus DMSO control (leaf transpiration) (Arabidopsis aba2-1; 2 μM or 1 μM spray, four days after spraying, FIG. 4b): still significantly increased compared to that with control (DMSO) treatment; also recorded: still significantly higher than that in the DMSO control
0.0593 | – | CCCN1C(=O)OC(C)(C)c2cc(NS(=O)(=O)Cc3c(F)c(F)c(C)c(F)c3F)ccc21 [Compound 0304] | significantly increased compared to that with control (DMSO) treatment; also recorded: the leaf temperature was higher than that in the DMSO control group | still significantly higher than that in the DMSO control | – | better than that of ABA | –
– | – | CCCN1C(=O)OCc2cc(NS(=O)(=O)Cc3c(F)c(F)c(C)c(F)c3F)ccc21 [Compound 0428] | – | – | – | – | leaf temperature versus DMSO control (leaf transpiration) (Arabidopsis aba2-1; 5 μM/2 μM/1 μM, treated for one day, FIG. 4d): significantly increased compared to that with DMSO treatment; also recorded: higher than that in the DMSO control group; EC50 ([1]; FIG. 2f, read-out: EC50): 0.0193 µM
– | 0.101 | CCN1C(=O)OC(C)c2cc(NS(=O)(=O)Cc3c(F)c(F)c(C)c(F)c3F)ccc21 (stereo not shown) [Compound 0706] | significantly increased compared to that with control (DMSO) treatment; also recorded: significantly increased compared to the control (DMSO) treatment | – | equivalent to that of 0224 | – | –
– | 0.0995 | Cc1c(F)c(F)c(CS(=O)(=O)Nc2ccc3c(c2)C(C)OC(=O)N3CCCF)c(F)c1F (stereo not shown) [Compound 0715] | significantly increased compared to that with control (DMSO) treatment; also recorded: significantly increased compared to the control (DMSO) treatment | – | equivalent to that of 0224 | – | –

Source: patent US11076597B2, “High stress resistant plant growth regulator and preparation method and use thereof” (SHANGHAI INSTITUTES FOR BIOLOGICAL SCIENCES, CHINESE …, priority 2015, dated 2021)
